From patent US20260182575A1, “MOLECULES HAVING PESTICIDAL UTILITY AND INTERMEDIATES AND PROCESSES RELATED THERETO” (CORTEVA AGRISCIENCE LLC, priority 2022, published 2026)
“And” between values parts separate entries of the source, which are not always exact repeats. Equal values may be shown once.

Columns and labels:
[1] = tested on: Western Flower Thrips (Frankliniella occidentalis, FRANOC, WFT); assay: Bioassay 3: western flower thrips, cotton leaf disc dip; format: in vivo; conditions: for Average % Control AI: 3 days; for Average % Control F1: F1 alone, 3 days after treatment
[2] = tested on: Soybean Looper (Chrysodeixis includens, PSEPIN, SBL); assay: Bioassay 4: soybean looper, artificial diet, 128-cell tray; format: in vivo; conditions: AI alone
How it was run: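 Test solutions (0.0000004–0.04% w/v, i.e. 0.00005–5 μg/cm² on diet) were pipetted onto artificial lepidopteran diet and one 2nd-instar larva was placed per cell, 8 replicates per species, held at ~26° C. Live larvae were counted after 5 days; percent control used Abbott's correction against a solvent check.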

[3] = AI alone at 1:1 rate to F1 3.125 (10^-6 Wt %)
[4] = AI alone at 1:1 rate to F1 0.78 (10^-6 Wt %)

Molecule	Average % Control AI [1, 3] [%]	Average % Control AI ([2]; 0.000004 wt %) [%]	Average % Control AI ([2]; 0.00004 wt %) [%]	further results
CC1=NNC(=O)N(/N=C/c2cccnc2)C1 [Pymetrozine]	21.4	12.5		
Cc1c(COC(=O)[C@@H]2[C@H](/C=C(\Cl)C(F)(F)F)C2(C)C)cccc1-c1ccccc1 (racemic) [Bifenthrin]	11.5	0.0	0.0	
CN1COCN(Cc2cnc(Cl)s2)/C1=N\[N+](=O)[O-] [Thiamethoxam]	6.7	0.0		Average % Control AI ([1]; AI alone at 1:1 rate to F1 0.195 (10^-6 Wt %)): 20.0%; Average % Control AI [1, 4]: 20.0%
Chlorfenapyr		25.0	37.5	Average % Control AI [1, 4]: 16.7%
C[C@]1(COC(=O)C2CC2)[C@@H]2C[C@H](O)[C@@]3(C)Oc4cc(-c5cccnc5)oc(=O)c4[C@H](O)[C@@H]3[C@@]2(C)CC[C@@H]1OC(=O)C1CC1 [Afidopyropen]		0.0	0.0	Average % Control AI ([1]; AI alone at 1:1 rate to F1 12.5 (10^-6 Wt %)): 0.0%; Average % Control AI ([1]; AI alone at 1:1 rate to F1 50 (10^-6 Wt %)): 5.7%
COC(=O)N(C(=O)N1CO[C@@]2(C(=O)OC)Cc3cc(Cl)ccc3C2=N1)c1ccc(OC(F)(F)F)cc1 [Indoxacarb]		0.0		
CON=CNC(=O)c1ccc(C2=NOC(c3cc(Cl)cc(Cl)c3)(C(F)(F)F)C2)cc1C (stereo not shown) [Fluxametamide]	4.8	12.5		
Cc1ccc(COCC(F)(F)F)c(N2C(=O)CS/C2=N\C(=O)Nc2ccc(-c3ncn(-c4ccc(OC(F)(F)F)cc4)n3)cc2F)c1 [F1]				Average % Control F1 ([1]; Wt % F1 (10^-6) 0.195, cotton leaf disc): 0.0% and 5.7%; Average % Control F1 ([1]; Wt % F1 (10^-6) 12.5, cotton leaf disc): 46.0%; Average % Control F1 ([1]; Wt % F1 (10^-6) 50, cotton leaf disc): 79.3%
